Assay results taken from patent publication US9062078B2, “Substituted 7-azabicyles and their use as orexin receptor modulators” (priority 2013, dated 2015).
Like-named read-outs stand apart in the source and are kept apart here.

Key:
rat orexin 1 receptor = rat orexin 1 receptor (Rattus norvegicus, UniProt P56718); experiment: Rat orexin 1 receptor radioligand binding (competitive, [3H]-SB674042, HEK293 cell preparations)
human orexin 1 receptor = human orexin 1 receptor (Homo sapiens (Human), UniProt O43613); experiment: Human orexin 1 receptor radioligand binding (competitive, [3H]-SB674042, CHO cell preparations)
human orexin 2 receptor = human orexin 2 receptor (Homo sapiens (Human), UniProt O43614); experiment: Human orexin 2 receptor radioligand binding (competitive, [3H]-EMPA, HEK293 cell preparations)
[1] = human orexin 2 receptor, [3H]-EMPA competition binding, read-out: hOX2 Ki (nm)
[2] = rat orexin 1 receptor, [3H]-SB674042 competition binding, read-out: rOX1 Ki (nm)
[3] = human orexin 1 receptor, [3H]-SB674042 competition binding, read-out: hOX1 Ki (nm)

human orexin 2 receptor, sequence (O43614 whole entry): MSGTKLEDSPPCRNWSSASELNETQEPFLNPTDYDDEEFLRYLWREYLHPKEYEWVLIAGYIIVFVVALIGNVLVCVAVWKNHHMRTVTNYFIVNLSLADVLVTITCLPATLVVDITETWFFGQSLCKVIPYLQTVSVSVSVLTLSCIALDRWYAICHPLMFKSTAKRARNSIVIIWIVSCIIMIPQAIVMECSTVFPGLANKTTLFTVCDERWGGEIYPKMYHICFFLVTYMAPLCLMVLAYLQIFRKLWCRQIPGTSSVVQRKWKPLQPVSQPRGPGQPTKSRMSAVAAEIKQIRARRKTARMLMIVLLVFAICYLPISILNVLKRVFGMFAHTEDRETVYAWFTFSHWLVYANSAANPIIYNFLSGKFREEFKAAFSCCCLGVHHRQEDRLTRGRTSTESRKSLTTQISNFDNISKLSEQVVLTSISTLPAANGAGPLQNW
human orexin 1 receptor, sequence (O43613 whole entry): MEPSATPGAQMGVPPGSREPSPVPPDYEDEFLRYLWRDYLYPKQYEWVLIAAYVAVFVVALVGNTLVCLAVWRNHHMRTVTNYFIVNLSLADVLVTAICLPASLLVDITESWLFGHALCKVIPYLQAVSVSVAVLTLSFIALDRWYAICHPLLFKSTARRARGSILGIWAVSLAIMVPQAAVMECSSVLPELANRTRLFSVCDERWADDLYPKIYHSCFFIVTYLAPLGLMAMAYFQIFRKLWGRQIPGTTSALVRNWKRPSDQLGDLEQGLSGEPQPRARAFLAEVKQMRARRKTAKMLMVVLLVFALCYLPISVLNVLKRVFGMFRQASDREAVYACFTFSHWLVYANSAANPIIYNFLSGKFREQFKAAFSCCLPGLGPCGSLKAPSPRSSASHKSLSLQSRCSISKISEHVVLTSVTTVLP

| Structure (SMILES) | Ki (rat orexin 1 receptor; read-out: rOX1 Ki (nm)) | Ki (human orexin 1 receptor; read-out: hOX1 Ki (nm)) | Ki (human orexin 2 receptor; [1]) | Ki (rat orexin 1 receptor; rOX1 Ki (nm)) | Ki (human orexin 1 receptor; hOX1 Ki (nm)) | Ki (rat orexin 1 receptor; [2]) | Ki (human orexin 1 receptor; [3]) | Ki (human orexin 2 receptor; hOX2 Ki (nm)) |
| --- | --- | --- | --- | --- | --- | --- | --- | --- |
| COc1cccc(-n2nccn2)c1C(=O)N1[C@@H]2CC[C@H]1[C@H](Nc1cnc(C(F)(F)F)cn1)C2 [Example 242, (2-methoxy-6-(2H-1,2,3-triazol-2-yl)phenyl)((1S,2R,4R)-2-((5-(trifluoromethyl)pyrazin-2-yl)amino)-7-azabicyclo[2.2.1]heptan-7-yl)methanone] | 31 nM | 41 nM | 239 nM |  |  |  |  |  |
| O=C(c1ccccc1-n1nccn1)N1C2CCC1C(Nc1nc3cc(Cl)ccc3o1)C2 (racemic) [Example 216, (±)-(2-(2H-1,2,3-triazol-2-yl)phenyl)(2-((5-chlorobenzo[d]oxazol-2-yl)amino)-7-azabicyclo[2.2.1]heptan-7-yl)methanone] |  |  | 475 nM | 99 nM | 71 nM |  |  |  |
| CCOc1ccc2cccnc2c1C(=O)N1C2CCC1C(COc1ccccn1)C2 (racemic) [Example 75, (±)-(7-ethoxyquinolin-8-yl)(2-((pyridin-2-yloxy)methyl)-7-azabicyclo[2.2.1]heptan-7-yl)methanone] |  |  | 220 nM |  |  | 18 nM | 7 nM |  |
| CCOc1ccnc(OCC)c1C(=O)N1C2CCC1C(COc1ccccn1)C2 (racemic) [Example 163, (±)-(2,4-diethoxypyridin-3-yl)(2-((pyridin-2-yloxy)methyl)-7-azabicyclo[2.2.1]heptan-7-yl)methanone] |  |  | 150 nM |  |  | 150 nM | 153 nM |  |
| O=C(c1ccc(F)cc1-c1ncccn1)N1[C@@H]2CC[C@H]1[C@H](Nc1cnc(C(F)(F)F)cn1)C2 [Example 267, (4-fluoro-2-(pyrimidin-2-yl)phenyl)((1S,2R,4R)-2-((5-(trifluoromethyl)pyrazin-2-yl)amino)-7-azabicyclo[2.2.1]heptan-7-yl)methanone] | 33 nM | 61 nM | 1700 nM |  |  |  |  |  |
| O=C(c1ncccc1-n1nccn1)N1[C@@H]2CC[C@H]1[C@H](Nc1cnc(C(F)(F)F)cn1)C2 [Example 288, (3-(2H-1,2,3-triazol-2-yl)pyridin-2-yl)((1S,2R,4R)-2-((5-(trifluoromethyl)pyrazin-2-yl)amino)-7-azabicyclo[2.2.1]heptan-7-yl)methanone] | 94 nM |  | 1900 nM |  |  |  | 128 nM |  |
| Cc1cccc(C(=O)N2C3CCC2C(COc2ccc(F)cn2)C3)c1-n1nccn1 (racemic) [Example 125, (±)-(2-(((5-fluoropyridin-2-yl)oxy)methyl)-7-azabicyclo[2.2.1]heptan-7-yl)(3-methyl-2-(2H-1,2,3-triazol-2-yl)phenyl)methanone] |  |  | 132 nM | 47 nM | 29 nM |  |  |  |
| Cc1cccc(C(=O)N2[C@@H]3CC[C@H]2[C@H](Nc2cnc(C(F)(F)F)cn2)C3)c1-n1nccn1 [Example 245, (3-methyl-2-(2H-1,2,3-triazol-2-yl)phenyl)((1S,2R,4R)-2-((5-(trifluoromethyl)pyrazin-2-yl)amino)-7-azabicyclo[2.2.1]heptan-7-yl)methanone] | 10 nM | 7 nM | 288 nM |  |  |  |  |  |
| Cn1cc(-c2ccccc2)c(C(=O)N2C3CCC2C(COc2ccccn2)C3)n1 (racemic) [Example 77, (±)-(1-methyl-4-phenyl-1H-pyrazol-3-yl)(2-((pyridin-2-yloxy)methyl)-7-azabicyclo[2.2.1]heptan-7-yl)methanone] |  |  |  |  |  | 103 nM | 66 nM | 867 nM |
| COc1ccc(C(=O)N2[C@@H]3CC[C@H]2[C@H](Nc2cnc(C(F)(F)F)cn2)C3)c(-n2nccn2)c1 [Example 241, (4-methoxy-2-(2H-1,2,3-triazol-2-yl)phenyl)((1S,2R,4R)-2-((5-(trifluoromethyl)pyrazin-2-yl)amino)-7-azabicyclo[2.2.1]heptan-7-yl)methanone] |  |  | 5060 nM |  |  | 134 nM | 159 nM |  |
| O=C(c1cccc(F)c1-n1nccn1)N1[C@@H]2CC[C@H]1[C@H](Nc1ncc(C(F)(F)F)cn1)C2 [Example 269, (3-fluoro-2-(2H-1,2,3-triazol-2-yl)phenyl)((1S,2R,4R)-2-((5-(trifluoromethyl)pyrimidin-2-yl)amino)-7-azabicyclo[2.2.1]heptan-7-yl)methanone] | 48 nM |  | 1700 nM |  |  |  | 111 nM |  |
| O=C(c1cccc(F)c1-c1ncccn1)N1C2CCC1C(COc1ccc(F)cn1)C2 (racemic) [Example 124, (±)-(3-fluoro-2-(pyrimidin-2-yl)phenyl)(−2-(((5-fluoropyridin-2-yl)oxy)methyl)-7-azabicyclo[2.2.1]heptan-7-yl)methanone] |  |  | 355 nM | 83 nM | 52 nM |  |  |  |
| Cc1ccc(-c2ncccn2)c(C(=O)N2C3CCC2C(Nc2ccc(Br)cn2)C3)n1 (racemic) [Example 217, (±)-(2-((5-bromopyridin-2-yl)amino)-7-azabicyclo[2.2.1]heptan-7-yl)(6-methyl-3-(pyrimidin-2-yl)pyridin-2-yl)methanone] |  |  | 770 nM | 59 nM | 40 nM |  |  |  |
| Cc1cc(-c2ccc(C)nc2C(=O)N2C3CCC2C(COc2ccccn2)C3)on1 (racemic) [Example 94, (±)-(6-methyl-3-(3-methylisoxazol-5-yl)pyridin-2-yl)(2-((pyridin-2-yloxy)methyl)-7-azabicyclo[2.2.1]heptan-7-yl)methanone] |  |  | 2100 nM |  |  | 170 nM | 200 nM |  |
| Cc1ccc(-c2ncccn2)c(C(=O)N2C3CCC2C(COc2ccccn2)C3)n1 (racemic) [Example 2, (±)-(6-methyl-3-(pyrimidin-2-yl)pyridin-2-yl)(2-((pyridin-2-yloxy)methyl)-7-azabicyclo[2.2.1]heptan-7-yl)methanone] |  |  |  | 31 nM | 23 nM |  |  | 500 nM |
| Cc1cccc(-n2nccn2)c1C(=O)N1C2CCC1C(COc1ccc(F)cn1)C2 (racemic) [Example 110, (±)-(2-(((5-fluoropyridin-2-yl)oxy)methyl)-7-azabicyclo[2.2.1]heptan-7-yl)(2-methyl-6-(2H-1,2,3-triazol-2-yl)phenyl)methanone] |  |  | 94 nM |  |  | 54 nM | 67 nM |  |
| O=C(c1cccc(F)c1-c1ncco1)N1[C@@H]2CC[C@H]1[C@H](Nc1cnc(C(F)(F)F)cn1)C2 [Example 260, (3-fluoro-2-(oxazol-2-yl)phenyl)((1S,2R,4R)-2-((5-(trifluoromethyl)pyrazin-2-yl)amino)-7-azabicyclo[2.2.1]heptan-7-yl)methanone] | 14 nM | 10 nM | 519 nM |  |  |  |  |  |
| O=C(c1cccc(F)c1-c1ncco1)N1[C@@H]2CC[C@H]1[C@H](Nc1ncc(C(F)(F)F)cn1)C2 [Example 284, (3-fluoro-2-(oxazol-2-yl)phenyl)((1S,2R,4R)-2-((5-(trifluoromethyl)pyrimidin-2-yl)amino)-7-azabicyclo[2.2.1]heptan-7-yl)methanone] | 29 nM | 27 nM | 1700 nM |  |  |  |  |  |
| O=C(c1ccccc1-n1nccn1)N1C2CCC1C(Nc1ccc(Cl)cn1)C2 (racemic) [Example 211, (±)-(2-(2H-1,2,3-triazol-2-yl)phenyl)(2-(((5-chloropyridin-2-yl)amino)-7-azabicyclo[2.2.1]heptan-7-yl)methanone] |  |  | 1800 nM | 110 nM | 55 nM |  |  |  |
| COc1ccc(-n2nccn2)c(C(=O)N2[C@@H]3CC[C@H]2[C@H](Nc2cnc(C(F)(F)F)cn2)C3)c1 [Example 255, (5-methoxy-2-(2H-1,2,3-triazol-2-yl)phenyl)((1S,2R,4R)-2-((5-(trifluoromethyl)pyrazin-2-yl)amino)-7-azabicyclo[2.2.1]heptan-7-yl)methanone] | 32 nM | 29 nM | 265 nM |  |  |  |  |  |
| Cc1cnn(-c2ccc(C)nc2C(=O)N2C3CCC2C(COc2ccccn2)C3)c1 (racemic) [Example 96, (±)-(6-methyl-3-(4-methyl-1H-pyrazol-1-yl)pyridin-2-yl)(2-((pyridin-2-yloxy)methyl)-7-azabicyclo[2.2.1]heptan-7-yl)methanone] |  |  | 950 nM |  |  | 70 nM | 76 nM |  |
| Cc1ccc(-c2ncco2)c(C(=O)N2C3CCC2C(COc2ccc(F)cn2)C3)n1 (racemic) [Example 63, (±)-(2-(((5-fluoropyridin-2-yl)oxy)methyl)-7-azabicyclo[2.2.1]heptan-7-yl)(6-methyl-3-(oxazol-2-yl)pyridin-2-yl)methanone] |  |  | 339 nM |  |  | 25 nM | 25 nM |  |
| Cc1ccc(-n2nccn2)c(C(=O)N2C3CCC2C(COc2ncccc2C)C3)n1 (racemic) [Example 176, (±)-(6-methyl-3-(2H-1,2,3-triazol-2-yl)pyridin-2-yl)(2-(((3-methylpyridin-2-yl)oxy)methyl)-7-azabicyclo[2.2.1]heptan-7-yl)methanone] | 119 nM | 150 nM | 202 nM |  |  |  |  |  |
| Cc1cccc(OCC2CC3CCC2N3C(=O)c2nc(C)ccc2-n2nccn2)n1 (racemic) [Example 62, (±)-(6-methyl-3-(2H-1,2,3-triazol-2-yl)pyridin-2-yl)(2-(((6-methylpyridin-2-yl)oxy)methyl)-7-azabicyclo[2.2.1]heptan-7-yl)methanone] |  |  |  |  |  | 74 nM | 46 nM | 188 nM |
| O=C(c1c(F)cccc1-n1nccn1)N1C2CCC1C(COc1ccc(F)cn1)C2 (racemic) [Example 115, (±)-(2-fluoro-6-(2H-1,2,3-triazol-2-yl)phenyl)(2-(((5-fluoropyridin-2-yl)oxy)methyl)-7-azabicyclo[2.2.1]heptan-7-yl)methanone] |  |  |  | 57 nM | 78 nM |  |  | 108 nM |
| Cc1ccc(N2CCCC2)c(C(=O)N2C3CCC2C(COc2ccccn2)C3)n1 (racemic) [Example 97, (±)-(6-methyl-3-(pyrrolidin-1-yl)pyridin-2-yl)(2-((pyridin-2-yloxy)methyl)-7-azabicyclo[2.2.1]heptan-7-yl)methanone] |  |  | 840 nM |  |  | 35 nM | 32 nM |  |
